From patent US20220106301A1, “ACETAMIDO-PHENYLBENZAMIDE DERIVATIVES AND METHODS OF USING THE SAME” (Athenex, Inc., priority 2020, published 2022) come the findings set out here.

SMILES strings stand for the structures.

The test concerns the target CYP3A4 (Homo sapiens, UniProt P08684). The test is described as follows: Determination of CYP3A4 inhibitory activity (human liver microsome, Luciferin-IPA). Conditions: CYP3A4 IC50 (nM), 37° C. 11 minutes. How it is done: The standard final Compound concentrations were 37, 111, 333, 1000, and 3000 nM. 12.5 μL of the Compound dilutions were transferred to a white 96-well plate. […] 25 μL of the buffer was added to each well. The plates were incubated at 37° C. for 11 minutes. 50 μL of luciferin detection reagent (Promega V9002) was added and the plates were incubated at room temperature for 5 minutes. The plate was read with a luminometer.
The dose-response curve and IC50 were obtained by fitting data to nonlinear regression model using GraphPad Prism software (v6.0).

Sequence of CYP3A4 (P08684 whole entry): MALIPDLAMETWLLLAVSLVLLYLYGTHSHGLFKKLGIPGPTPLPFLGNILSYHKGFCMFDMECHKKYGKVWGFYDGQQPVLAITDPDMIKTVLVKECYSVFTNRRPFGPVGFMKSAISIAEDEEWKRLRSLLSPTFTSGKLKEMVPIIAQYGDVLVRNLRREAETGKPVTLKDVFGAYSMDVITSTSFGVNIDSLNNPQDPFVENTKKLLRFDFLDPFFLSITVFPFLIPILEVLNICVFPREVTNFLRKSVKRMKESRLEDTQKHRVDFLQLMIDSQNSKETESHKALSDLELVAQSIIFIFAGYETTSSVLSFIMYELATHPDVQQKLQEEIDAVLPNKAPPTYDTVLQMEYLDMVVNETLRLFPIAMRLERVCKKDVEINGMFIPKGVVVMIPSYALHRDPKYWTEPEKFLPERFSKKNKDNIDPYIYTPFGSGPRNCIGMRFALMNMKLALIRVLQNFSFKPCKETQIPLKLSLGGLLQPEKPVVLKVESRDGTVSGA

For `CCCN(CCc1ccc(NC(=O)c2cc(OC)c(OC)cc2NC(=O)c2cc(=O)c3ccccc3o2)cc1)Cc1ccc(-n2ccnc2)c(OC)c1` [Compound 91], the IC50 was in the range of 100 to 250 nM. With `COc1cc(NC(=O)c2cc(=O)c3ccccc3o2)c(C(=O)Nc2ccc(CCN(Cc3ccncc3)Cc3ccc4c(cnn4C)c3)cc2)cc1OC` [Compound 33] the figure was under 100 nM; with `COCCOc1cncc(CN(CCc2ccc(NC(=O)c3cc(OC)c(OC)cc3NC(=O)c3cc(=O)c4cc(C)ccc4o3)cc2)Cc2ccc3c(c2)c(C)nn3C)c1` [Compound 68], 100 to 250 nM.

For the compound `CCN(CCc1ccc(NC(=O)c2cc(OC)c(OC)cc2NC(=O)c2cc(=O)c3ccccc3o2)cc1)Cc1ccc(O)c(OC)c1` [Compound 135], the IC50 is 500 to 1000 nM. With `COc1cc(NC(=O)c2cc(=O)c3ccccc3o2)c(C(=O)Nc2ccc(CCN(Cc3cccc(-n4cnc(C)c4)c3)Cc3ccc4c(cnn4C)c3)cc2)cc1OC` [Compound 23] the figure was 250 to 500 nM; with `COc1cc(NC(=O)c2cc(=O)c3ccccc3o2)c(C(=O)Nc2ccc(CCNCc3cccnc3)cc2)cc1OC` [Compound 214], over 1000 nM; with `CCOc1cc(C(=O)Nc2ccc(CCN(C)Cc3ccc4c(cnn4C)c3)cc2)c(NC(=O)c2cc(=O)c3ccccc3o2)cc1OC` [Compound 111], over 1000 nM. In the case of `COCCOc1cncc(CN(CCc2ccc(NC(=O)c3cc(OC)c(OC)cc3NC(=O)c3cc(=O)c4ccccc4o3)cc2)Cc2ccc3c(c2)c(C)nn3C)c1` [Compound 65] it was 100 to 250 nM.

`CCc1cn(-c2cccc(CN(C)CCc3ccc(NC(=O)c4cc(OC)c(OC)cc4NC(=O)c4cc(=O)c5ccccc5o4)cc3)c2)cn1` [Compound 105]: the IC50 was 100 to 250 nM.

`CCN(CCc1ccc(NC(=O)c2cc(OC)c(OC)cc2NC(=O)c2cc(=O)c3ccccc3o2)cc1)Cc1ccc2c(cnn2CC)c1` [Compound 192] gave an IC50 of over 1000 nM. The compound `COc1cc(NC(=O)c2cc(=O)c3ccccc3o2)c(C(=O)Nc2ccc(CCN(C)C(=O)c3cccc(-n4ccnc4)c3)cc2)cc1OC` [Compound 122] came in with a 50% inhibitory concentration (IC50) of 500 to 1000 nM. In the case of `CCn1c2ccccc2c2cc(CN(CCc3ccc(NC(=O)c4cc(OC)c(OC)cc4NC(=O)c4cc(=O)c5ccccc5o4)cc3)Cc3cccc(-n4ccnc4)c3)ccc21` [Compound 212] it was over 1000 nM; in that of `COc1cc(NC(=O)c2cnc3ccccc3n2)c(C(=O)Nc2ccc(CCN(Cc3ccc4cnn(C)c4c3)Cc3ccc4cnn(C)c4c3)cc2)cc1OC` [Compound 168], over 1000 nM; in that of `COC(=O)c1ccc(C(=O)Nc2ccc(CCN(Cc3cncc(OC)c3)Cc3ccc4c(cnn4C)c3)cc2)c(NC(=O)c2cc(=O)c3ccccc3[nH]2)c1` [Compound 79], 100 to 250 nM.

`COc1cc2c(cc1OC)CN(CCc1ccc(NC(=O)c3ccc(C(=O)OCc4cccnc4)cc3NC(=O)c3cc(=O)c4ccccc4o3)cc1)CC2` [Compound 80] gave an IC50 of 500 to 1000 nM. Regarding `CCn1ncc2cc(CN(CCc3ccc(NC(=O)c4cc(OC)c(OC)cc4NC(=O)C4CC(=O)c5ccccc5O4)cc3)Cc3cccc(-n4ccnc4)c3)ccc21` (centres unmarked) [Compound 205], the IC50 was 500 to 1000 nM. With `COc1cc(NC(=O)c2cc(=O)c3ccccc3o2)c(C(=O)Nc2ccc(CCN(Cc3cccnc3)Cc3cnc4cnc(Br)cn34)cc2)cc1OC` [Compound 54] the figure was 100 to 250 nM; with `COc1cc(NC(=O)c2cc(=O)c3ccccc3o2)c(C(=O)Nc2ccc(CCN(C)Cc3cc(-n4cnc(C)c4)ccc3C)cc2)cc1OC` [Compound 117], 250 to 500 nM. With `COc1cncc(CN(CCc2ccc(NC(=O)c3cc(OC)c(OC)cc3NC(=O)c3cc(=O)c4ccccc4o3)cc2)Cc2cccc(-n3ccnc3)c2)c1` [Compound 217] the figure was 100 to 250 nM. With `COC(=O)c1ccc(C(=O)Nc2ccc(CCN(Cc3cccc(-n4ccnc4)c3)Cc3cccc(-n4ccnc4)c3)cc2)c(NC(=O)c2cc(=O)c3ccccc3o2)c1` [Compound 260] the figure was under 100 nM. In the case of `COc1ccc(CN(CCc2ccc(NC(=O)c3cc(OC)c(OC)cc3NC(=O)c3cc(=O)c4ccccc4o3)cc2)Cc2cccnc2)cc1OC` [Compound 29], the IC50 was 100 to 250 nM.

`COc1cc(NC(=O)c2cc(=O)c3ccccc3o2)c(C(=O)Nc2ccc(CCN(Cc3ccc(-n4cncn4)cc3)Cc3ccc4c(cnn4C)c3)cc2)cc1OC` [Compound 142] showed an IC50 of over 1000 nM. Consider `COc1cc(NC(=O)c2cc(=O)c3cc(C)ccc3o2)c(C(=O)Nc2ccc(CCN(Cc3cncc(C(C)C)c3)Cc3ccc4c(cnn4C)c3)cc2)cc1OC` [Compound 76], for which the IC50 was over 1000 nM.

In turn, `COC(=O)c1ccc(C(=O)Nc2ccc(CCN(Cc3ccc(OC)c(OC)c3)Cc3ccc(OC)c(OC)c3)cc2)c(NC(=O)c2cc(=O)c3ccccc3o2)c1` [Compound 263] yielded an IC50 of over 1000 nM.

`COc1cc(NC(=O)c2cc(=O)c3ccccc3o2)c(C(=O)NCc2ccc(CN(Cc3ccc4c(cnn4C)c3)Cc3ccccc3-n3ccnc3)cc2)cc1OC` [Compound 232]: the IC50 is under 100 nM. With `COc1cc(NC(=O)c2cnc3ccccc3n2)c(C(=O)Nc2ccc(CCN(Cc3cncc(C)c3)Cc3ccc4c(cnn4C)c3)cc2)cc1OC` [Compound 70] the figure was 100 to 250 nM; with `COc1cc(NC(=O)c2cc(=O)c3ccccc3o2)c(C(=O)Nc2ccc(CCN(Cc3cccnc3)Cc3cccc4cnn(C)c34)cc2)cc1OC` [Compound 201], 500 to 1000 nM. With `COc1cc(NC(=O)c2cc(=O)c3ccccc3o2)c(C(=O)Nc2ccc(CCN(C)C(=O)c3cccc(-c4cccnc4)c3)cc2)cc1OC` [Compound 124] the figure was 250 to 500 nM; with `COc1cc(NC(=O)c2cc(=O)c3ccccc3o2)c(C(=O)Nc2ccc(CCN(Cc3cncc(Cl)c3)Cc3ccc4c(cnn4C)c3)cc2)cc1OC` [Compound 227], 500 to 1000 nM; with `COc1cc(NC(=O)c2cc(=O)c3ccccc3o2)c(C(=O)NCc2ccc(CN(Cc3ccc(-c4cncs4)cc3)Cc3ccc4c(cnn4C)c3)cc2)cc1OC` [Compound 238], over 1000 nM. In the case of `COc1cncc(CN(CCc2ccc(NC(=O)c3cc(OC)c(OC)cc3NC(=O)c3cc(=O)c4ccccc4o3)cc2)Cc2ccc3c(cnn3C(C)=O)c2)c1` [Compound 252] it was 250 to 500 nM; in that of `COc1cc(NC(=O)c2cc(=O)c3ccccc3o2)c(C(=O)NCc2ccc(CN(Cc3ccc(-n4ccnc4)cc3)Cc3ccc4c(cnn4C)c3)cc2)cc1OC` [Compound 237], 100 to 250 nM; in that of `COc1cc(NC(=O)c2cc(=O)c3ccccc3o2)c(C(=O)NCc2ccc(CN(Cc3cccc(-n4ccnc4)c3)Cc3ccc4c(cnn4C)c3)cc2)cc1OC` [Compound 233], 100 to 250 nM.

With `COC(=O)c1ccc(CN(CCc2ccc(NC(=O)c3cc(OC)c(OC)cc3NC(=O)c3cc(=O)c4ccccc4o3)cc2)Cc2cccc(-n3ccnc3)c2)cc1` [Compound 218], the IC50 was in the range of 100 to 250 nM. With `C#Cc1cccc(CN(C)CCc2ccc(NC(=O)c3cc(OC)c(OC)cc3NC(=O)c3cc(=O)c4ccccc4o3)cc2)c1` [Compound 116] the figure was over 1000 nM; with `CCN(CCc1ccc(NC(=O)c2cc(OC)c(OC)cc2NC(=O)c2cc(=O)c3ccccc3o2)cc1)Cc1ccc2c(c1)ncn2C` [Compound 109], over 1000 nM; with `COc1cc(NC(=O)c2cc(=O)c3ccccc3o2)c(C(=O)Nc2ccc(CCN(C)Cc3ccc4c(c3)CCO4)cc2)cc1OC` [Compound 155], over 1000 nM. Compound `COc1cc(NC(=O)c2cc(=O)c3ccccc3o2)c(C(=O)Nc2ccc(CCN(Cc3ccncc3)Cc3ccc4cnn(C)c4c3)cc2)cc1OC` [Compound 182] came in with an IC50 of under 100 nM. With `COc1cc(NC(=O)c2cc(=O)c3ccccc3o2)c(C(=O)Nc2ccc(CCN(Cc3cccc(-n4ccnc4)c3)C(C)C)cc2)cc1OC` [Compound 10] the figure was 250 to 500 nM; with `COc1cc(NC(=O)c2cc(=O)c3ccccc3o2)c(C(=O)Nc2ccc(CCN(C)Cc3cccc(-c4cccnc4)c3)cc2)cc1OC` [Compound 7], 500 to 1000 nM; with `COc1cncc(CN(CCc2ccc(NC(=O)c3cc(OC)c(OC)cc3NC(=O)c3cc(=O)c4cc(C)ccc4o3)cc2)Cc2ccc3c(c2)c(C)nn3C)c1` [Compound 67], 100 to 250 nM.

`COc1cc(NC(=O)c2cc(=O)c3ccccc3o2)c(C(=O)Nc2ccc(CCN3CCc4cnccc4C3)cc2)cc1OC` [Compound 83] had an IC50 of under 100 nM. In the case of `COc1cc(NC(=O)c2cc(=O)c3ccccc3o2)c(C(=O)Nc2ccc(CCN(Cc3cccc(-n4ccnc4)c3)Cc3ccc4cnn(C)c4c3)cc2)cc1OC` [Compound 177] it was under 100 nM. With `COc1cc2c(cc1OC)CN(CCc1ccc(NC(=O)c3ccc(C(=O)OCc4ccncc4)cc3NC(=O)c3cc(=O)c4ccccc4o3)cc1)CC2` [Compound 81] the figure was over 1000 nM.

With `COc1cc(NC(=O)c2cc(=O)c3ccccc3o2)c(C(=O)Nc2ccc(CCN(Cc3cncc(-n4ccnc4C)c3)Cc3ccc4c(cnn4C)c3)cc2)cc1OC` [Compound 58], the IC50 lay in the range of 500 to 1000 nM. In the case of `COc1cc(NC(=O)c2cnc3ccccc3c2)c(C(=O)Nc2ccc(CCN(Cc3cccc(-n4ccnc4)c3)Cc3ccc4c(c3)c(C)nn4C)cc2)cc1OC` [Compound 179] it was 250 to 500 nM. In the case of `COc1cc(NC(=O)c2cnc3c(O)cccc3c2)c(C(=O)Nc2ccc(CCN(C)Cc3ccc4c(cnn4C)c3)cc2)cc1OC` [Compound 136] it was over 1000 nM; in that of `COc1cc(NC(=O)c2cc(=O)c3ccccc3o2)c(C(=O)Nc2ccc(CCN(Cc3cncc(OCCN)c3)Cc3ccc4c(cnn4C)c3)cc2)cc1OC` [Compound 246], over 1000 nM; in that of `COc1cc(NC(=O)c2cc(=O)c3ccccc3o2)c(C(=O)Nc2ccc(CCN(Cc3ccc(N)nc3)Cc3ccc4c(cnn4C)c3)cc2)cc1OC` [Compound 224], over 1000 nM. With `CCOc1cc(C(=O)Nc2ccc(CCN(C)Cc3ccc(-n4ccnc4)cc3)cc2)c(NC(=O)c2cc(=O)c3ccccc3o2)cc1OC` [Compound 108] the figure was 250 to 500 nM.
